The values that follow come from ChEMBL document CHEMBL4257081, “Inhibitors of the kynurenine pathway” (2016).

Assay type in all cases: functional
Assay [1] deals with Mus musculus. In words: In vivo inhibition of IDO1 in po dosed LPS-induced C57BL/6 mouse assessed as reduction in plasma kynurenine levels measured after 2 to 48 hrs by LC/MS/MS analysis.
Assay [2] has as its system Mus musculus. In words: Reduction in kynurenine levels in tumor of Balb/C mouse implanted with mouse CT26 cells at 20 mg/kg, po bid for 4 days measured 2 hrs post last dose by LC/MS/MS analysis relative to control. Also noted: scale not given: the % may be the effect or the level left.
Assay [3] concerns Mus musculus. Nature of the assay: Reduction in plasma kynurenine levels in Balb/C mouse implanted with mouse CT26 cells at 20 mg/kg, po bid for 4 days measured 2 hrs post last dose by LC/MS/MS analysis relative to control. Further details: scale not given: the % may be the effect or the level left.

Where only a bound is given, the exact number is not on record here.

In the case of `Nc1oc2cnccc2c1Nc1cccc(C(F)(F)F)c1`, the “inhibition (INH)” value in the assay on Mus musculus [1] is greater than 50%. For the same compound, the Activity result in the assay with Mus musculus [2] was “>=25 - 50%”; in the assay on Mus musculus [3], greater than 50%.
